Laboratory results published in patent US11957671B2, “Benzodioxane modulators of leukotriene A4 hydrolase (LTA4H) for prevention and treatment of aging-associated diseases” (Alkahest, Inc., priority 2021, dated 2024).

Assays:
[1] = system: purified endothelial cells from the brains of aged C57BL/6 mice; test: Microbulk qPCR of endothelial genes; assay type: in vivo, mouse; details: 1 month bid P.O., 1 mg/kg Compound 1 or 2.5 mg/kg SC57461A
Description: Downregulation of the detrimental genes Bsg, Gbp4, and CXCL12 in purified endothelial cells from the brains of mice treated with LTA4H inhibitors Compound 1 or SC57461A were compared to those of vehicle treated mice. Gene expression was measured by qPCR from 500 sorted endothelial cells and was normalized to GAPDH control.
Aged C57BL/6 mice (21 months of age) were treated for 1 month bid P.O. with vehicle, 1 mg/kg Compound 1, or 2.5 mg/kg SC57461A (n=3 mice per treatment group). One cortical cap (cortex and hippocampus) from each mouse was isolated and cells were dissociated using Miltenyi Neutral Dissociation Kit (#130-092-628). Cells were sorted using Sony Multi-Application Cell Sorter MA900 into clean, RNAase free 200 uL PCR strip tube with 5 uL RNAlater at a concentration of 500 cells per tube. RNA was isolated follow kit protocol for Qiagen RNeasy Micro Kit (#74004). cDNA was synthesized using SuperScript III Kit Protocol and qPCR assays were run using TaqMan or SYBR green primers.
Downregulation of the beneficial gene, Plat, in purified endothelial cells from the brains of mice treated with LTA4H inhibitors Compound 1 or SC57461A were compared to those of vehicle treated mice. Gene expression was measured by qPCR from 500 sorted endothelial cells and was normalized to GAPDH control.

[2] = system: Male C57BL/6 mice aged 20-21 months; test: Cortical brain lysate Cardiovascular Disease Panel (Luminex); assay type: in vivo, mouse; details: 10 mg/kg po one month
Description: Male C57BL/6 mice aged 20-21 months were treated with Vehicle or 10 mg/kg Compound 1 LTA4H inhibitor po for one month. Mice were anesthetized and perfused with saline. Brain tissue was collected, and sub dissected into cortex and hippocampus. Cortex samples were lysed in RIPA buffer and the soluble supernatant fraction was sent to Eve Technologies for analysis on the Cardiovascular Disease Panel using Luminex technology.

Notch3R169C mice = test: CADASIL transgenic mouse model Notch3R169C, 4 months dosing (Example 24); assay type: in vivo; details: 1 mg/kg PO BID 4 months
Description: Notch3^R169C mice (5-month-old) were treated PO BID with either vehicle or Compound 1 (1 mg/kg) for 4 months and littermate WT controls were treated with vehicle for 4 months. Prior to sacrifice, syringes were prepped with 7.5 μL of 1000 U/mL heparin. To increase LTB4 plasma levels, whole blood was stimulated with calcimycin prior to generation of plasma. First, 100 μL of 10 mM calcimycin (Sigma #C7522) in DMSO was diluted into 10 mL of PBS and sonicated for 10 minutes at 37° C. In a 96 well polystyrene plate (Corning 354657), 160 μL of mouse whole blood was collected for each animal and incubated for 15 minutes in a 37° C./5% CO2 (Panasonic MCO-230AICUV-PA). Next, 40 μL of the 100 μM calcimycin working solution was added to each well and incubated again for 30 minutes at 37° C./5% CO2. After incubation, the plates were centrifuged for 10 minutes at 4° C. at 1500 rpm. Plasma was diluted 1:10 and analyzed for LTB4 using LTB4 ELISA Kit (Enzo Life Sciences, ADI-901-068) in duplicate following the included kit protocol. The final readings were collected on a BMG LABTECH CLARIOstar plate reader at 405 nm. Brain tissue was dissected for cortex. One third of the cortex was homogenized in RIPA buffer (EMD Millipore 20-188) using an Omni BeadRuptor 24. Lysates were centrifuged for 10 mins at 10,000 g at 4° C. to collect the supernatant. Protein concentration was determined by BCA (Thermo Fisher 23225) and then diluted in PBS to approximately 10 mg/ml. Samples were sent to Eve Technologies for analysis.

aged C57BL/6 mice = test: Long term potentiation (LTP) in hippocampal slices; assay type: in vivo, mouse; details: 1 month bid po, 1 mg/kg Compound 1 or 2.5 mg/kg SC57461A
Description: Aged C57BL/6 mice (21 months of age) were treated for 1 month bid po with vehicle, 1 mg/kg Compound 1, or 2.5 mg/kg SC57461A (n=5 mice per treatment group). Electrophysical recordings were performed at AfaSci, Inc, as follows. Animals were deeply anesthetized with halothane and decapitated. The brain was quickly taken out and placed into ice-cold artificial cerebrospinal fluid (ACSF) that was continuously bubbled with 5% CO2/95% O2. The ACSF was composed of (in mM) NaCl 130.0, KCl 2.5, KH2PO4 1.2, CaCl2 2.4, MgSO4 1.3, NaHCO326.0 and glucose 10.0 (pH 7.4). Hippocampal slices (400 μm thick) were prepared using a tissue slicer (Stoelting Co., IL) and incubated at room temperature in continuously oxygenated ACSF for at least 1 h before being recorded with submerged mode in chamber (Harvard Apparatus) at room temperature. Data were collected with an Axopatch-2B amplifier and pClamp 10.4 program (Axon Instruments) through digidata 1320A.
Field population spike (PS) was recorded using glass microelectrode filled with ACSF (resistance: 1-3 MO). Biphasic current pulses (0.2 ms duration for one phase, 0.4 ms in total) were delivered in 10 s intervals through a concentric bipolar stimulating electrode (FHC, Inc.). […] To record field population spikes in dorsal dentate gyrus, the stimulating electrode was placed on the hippocampal fissure to stimulate the bypassing perforant pathway fibers and the recording electrode was placed on inner part of granular cell layer. To record field EPSPs in DG, the stimulating electrode was placed on the hippocampal fissure to stimulate the bypassing perforant pathway fibers and the recording electrode was placed on inner part of granular cell layer. Slices were recorded within 8 hours after dissection. Titanic stimulation consisted of 2 trains of 100 pulses (0.4 ms bipolar pulse duration, 100 Hz) lasting for 1 second with 5 seconds of interval. The slope of EPSP and amplitude of population spike were measured from the initial phase of negative wave with Clampfit10.4. Each data point was measured with average of 3 consecutive traces. LTP was plotted as the percentage to baseline following high frequency stimulation (mean±SEM).

## O=C(O)C1CCN(Cc2ccc([C@H]3COc4ccccc4O3)cc2)CC1 [Example 1, 1-{4-[(2S)-2,3-dihydro-1,4-benzodioxin-2-yl]benzyl}piperidine-4-carboxylic acid]
[1]
  Bsg gene expression: down regulation of Bsg gene expression
  CXCL12 gene expression: down regulation of CXCL12 gene expression
  Gpb4 gene expression: down regulation of Gpb4 gene expression
  Plat gene expression: up regulation of Plat gene expression
[2]
  cortical MMP9 protein: trending reduction in cortical MMP9 protein
  cortical Pecam-1 protein: trending reduction in cortical Pecam-1 protein
Notch3R169C mice
  IL-2 levels in plasma: significantly reduced
  IL-7 levels in brain cortex lysate: significantly reduced
  LTB4 levels in stimulated plasma: significantly reduced
  LTB4 levels in unstimulated plasma: no change in LTB4 levels detected between groups
Aged C57BL/6 mice
  LTP, CA1 region of the hippocampus: increase in LTP
  LTP, DG region of the hippocampus: increase in LTP
